According to US10597388B2, “Pyridazinone herbicides” (FMC CORPORATION, priority 2014, dated 2020):

Columns and labels:
Assay in all cases: Test C greenhouse herbicide test, pre- and postemergence
Format in all cases: in vivo
corn (Zea mays) = tested on: corn (Zea mays)
Outline: (§1)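 Two application timings: at sowing into a soil/sand blend, and on 2–18 cm seedlings in peat-vermiculite potting mix. A non-phytotoxic, surfactant-containing solvent carried the compounds. Plants were compared with controls and rated visually on 0–100 after 13–15 d.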

[1] = tested on: waterhemp (common waterhemp, Amaranthus rudis)
Outline: as §1

[2] = tested on: wheat (winter wheat, Triticum aestivum)
Outline: as §1

[3] = tested on: ragweed (common ragweed, Ambrosia elatior)
Outline: as §1

[4] = tested on: foxtail, giant (giant foxtail, Setaria faberii)
Outline: as §1

[5] = tested on: lambsquarters (Chenopodium album)
Outline: as §1

[6] = tested on: galium (catchweed bedstraw, Galium aparine)
Outline: as §1

[7] = tested on: velvetleaf (Abutilon theophrasti)
Outline: as §1

[8] = tested on: oilseed rape (Brassica napus)
Outline: as §1

[9] = tested on: blackgrass (Alopecurus myosuroides)
Outline: as §1

[10] = tested on: pigweed (Amaranthus retroflexus)
Outline: as §1

[11] = tested on: ryegrass, Italian (Italian ryegrass, Lolium multiflorum)
Outline: as §1

[12] = tested on: crabgrass, large (large crabgrass, Digitaria sanguinalis)
Outline: as §1

[13] = tested on: barnyardgrass (Echinochloa crus-galli)
Outline: as §1

[14] = tested on: morningglory (Ipomoea coccinea)
Outline: as §1

[15] = Postemergence, 31 g ai/ha, 0 to 100 scale (0 no effect, 100 complete control)
[16] = Postemergence, 125 g ai/ha, scale 0 to 100, 0 is no effect, 100 is complete control
[17] = Postemergence, 250 g ai/ha, scale 0 to 100, 0 no effect, 100 complete control, 13 to 15 d
[18] = Preemergence, 31 g ai/ha, scale 0 to 100, 0 is no effect, 100 is complete control
[19] = Preemergence, 62 g ai/ha, scale 0 to 100, 0 is no effect, 100 is complete control
[20] = Preemergence, 125 g ai/ha, scale 0 to 100, 0 is no effect, 100 is complete control
[21] = Preemergence, 250 g ai/ha, scale 0 to 100, 0 no effect, 100 complete control
[22] = postemergence, 62 g ai/ha, scale 0 to 100, 0 no effect, 100 complete control

In the case of `CCc1ccc2ccccc2c1-c1c(O)c(C)nn(C)c1=O` [Compound 32], the “Corn plant response rating” value (corn (Zea mays); [15]) is reported as 0, the “Plant response rating, Corn” value (corn (Zea mays); [16]) is reported as 30 and the “Plant response rating, Corn” value (corn (Zea mays); [17]) is reported as 40. The “Plant response rating, Corn” value (corn (Zea mays); [18]) was 0, the “Plant response rating, Corn” value (corn (Zea mays); [19]) was 0 and the “Plant response rating, Corn” value (corn (Zea mays); [20]) was 0. For the same compound, the “Corn plant response rating” value (corn (Zea mays); [21]) was 35, the “Corn plant response rating” value (corn (Zea mays); [22]) was 20 and the “Waterhemp plant response rating” value [1, 15] was 70. The “Plant response rating, Waterhemp” value [1, 16] was 85, the “Plant response rating, Waterhemp” value [1, 17] was 98 and the “Plant response rating, Waterhemp” value [1, 19] was 100. For the same compound, the “Plant response rating, Waterhemp” value [1, 20] was 100, the “Waterhemp plant response rating” value [1, 21] was 100 and the “Waterhemp plant response rating” value [1, 22] was 80. For the same compound, the “Wheat plant response rating” value [2, 15] was 5, the “Plant response rating, Wheat” value [2, 16] was 25 and the “Plant response rating, Wheat” value [2, 17] was 40. The “Plant response rating, Wheat” value [2, 19] was 45, the “Plant response rating, Wheat” value [2, 20] was 50 and the “Wheat plant response rating” value [2, 21] was 70. The “Wheat plant response rating” value [2, 22] was 15, the “Ragweed plant response rating” value [3, 15] was 85 and the “Plant response rating, Ragweed” value [3, 16] was 98. The “Plant response rating, Ragweed” value [3, 17] was 98, the “Plant response rating, Ragweed” value [3, 18] was 85 and the “Plant response rating, Ragweed” value [3, 19] was 90. For the same compound, the “Plant response rating, Ragweed” value [3, 20] was 95, the “Ragweed plant response rating” value [3, 21] was 98 and the “Ragweed plant response rating” value [3, 22] was 90. The “Foxtail, Giant plant response rating” value [4, 15] was 15, the “Plant response rating, Foxtail, Giant” value [4, 16] was 80 and the “Plant response rating, Foxtail, Giant” value [4, 17] was 90. For the same compound, the “Plant response rating, Foxtail, Giant” value [4, 18] was 55, the “Plant response rating, Foxtail, Giant” value [4, 19] was 80 and the “Plant response rating, Foxtail, Giant” value [4, 20] was 85. For the same compound, the “Foxtail, Giant plant response rating” value [4, 21] was 85, the “Foxtail, Giant plant response rating” value [4, 22] was 50 and the “Lambsquarters plant response rating” value [5, 15] was 85. The “Plant response rating, Lambsquarters” value [5, 16] was 98, the “Plant response rating, Lambsquarters” value [5, 17] was 100 and the “Plant response rating, Lambsquarters” value [5, 18] was 80. For the same compound, the “Plant response rating, Lambsquarters” value [5, 19] was 70, the “Plant response rating, Lambsquarters” value [5, 20] was 85 and the “Lambsquarters plant response rating” value [5, 21] was 90. The “Lambsquarters plant response rating” value [5, 22] was 90, the “Galium plant response rating” value [6, 15] was 90 and the “Plant response rating, Galium” value [6, 16] was 100. The “Plant response rating, Galium” value [6, 17] was 100, the “Plant response rating, Galium” value [6, 18] was 90 and the “Plant response rating, Galium” value [6, 19] was 95. For the same compound, the “Plant response rating, Galium” value [6, 20] was 100, the “Galium plant response rating” value [6, 21] was 98 and the “Galium plant response rating” value [6, 22] was 100. For the same compound, the “Velvetleaf plant response rating” value [7, 15] was 10, the “Plant response rating, Velvetleaf” value [7, 16] was 85 and the “Plant response rating, Velvetleaf” value [7, 17] was 85. The “Plant response rating, Velvetleaf” value [7, 19] was 85, the “Plant response rating, Velvetleaf” value [7, 20] was 85 and the “Velvetleaf plant response rating” value [7, 21] was 90. The “Velvetleaf plant response rating” value [7, 22] was 70, the “Oilseed Rape plant response rating” value [8, 15] was 10 and the “Plant response rating, Oilseed Rape” value [8, 16] was 60. For the same compound, the “Plant response rating, Oilseed Rape” value [8, 17] was 90, the “Plant response rating, Oilseed Rape” value [8, 18] was 25 and the “Plant response rating, Oilseed Rape” value [8, 19] was 90. For the same compound, the “Plant response rating, Oilseed Rape” value [8, 20] was 90, the “Oilseed Rape plant response rating” value [8, 21] was 100 and the “Oilseed Rape plant response rating” value [8, 22] was 60. The “Blackgrass plant response rating” value [9, 15] was 30, the “Plant response rating, Blackgrass” value [9, 16] was 80 and the “Plant response rating, Blackgrass” value [9, 17] was 80. The “Plant response rating, Blackgrass” value [9, 18] was 70, the “Plant response rating, Blackgrass” value [9, 19] was 90 and the “Plant response rating, Blackgrass” value [9, 20] was 90. For the same compound, the “Blackgrass plant response rating” value [9, 21] was 90, the “Blackgrass plant response rating” value [9, 22] was 60 and the “Pigweed plant response rating” value [10, 15] was 75. For the same compound, the “Plant response rating, Pigweed” value [10, 16] was 90, the “Plant response rating, Pigweed” value [10, 17] was 95 and the “Plant response rating, Pigweed” value [10, 18] was 100. For the same compound, the “Plant response rating, Pigweed” value [10, 19] was 100, the “Plant response rating, Pigweed” value [10, 20] was 100 and the “Pigweed plant response rating” value [10, 21] was 100. The “Pigweed plant response rating” value [10, 22] was 90, the “Ryegrass, Italian plant response rating” value [11, 15] was 85 and the “Plant response rating, Ryegrass, Italian” value [11, 16] was 90. For the same compound, the “Plant response rating, Ryegrass, Italian” value [11, 17] was 95, the “Plant response rating, Ryegrass, Italian” value [11, 18] was 85 and the “Plant response rating, Ryegrass, Italian” value [11, 19] was 90. The “Plant response rating, Ryegrass, Italian” value [11, 20] was 95, the “Ryegrass, Italian plant response rating” value [11, 21] was 95 and the “Ryegrass, Italian plant response rating” value [11, 22] was 90. The “Crabgrass, Large plant response rating” value [12, 15] was 10, the “Plant response rating, Crabgrass, Large” value [12, 16] was 75 and the “Plant response rating, Crabgrass, Large” value [12, 17] was 70. The “Plant response rating, Crabgrass, Large” value [12, 18] was 0, the “Plant response rating, Crabgrass, Large” value [12, 19] was 35 and the “Plant response rating, Crabgrass, Large” value [12, 20] was 70. For the same compound, the “Crabgrass, Large plant response rating” value [12, 21] was 100, the “Crabgrass, Large plant response rating” value [12, 22] was 30 and the “Barnyardgrass plant response rating” value [13, 15] was 10. For the same compound, the “Plant response rating, Barnyardgrass” value [13, 16] was 65, the “Plant response rating, Barnyardgrass” value [13, 17] was 90 and the “Plant response rating, Barnyardgrass” value [13, 18] was 20. The “Plant response rating, Barnyardgrass” value [13, 19] was 65, the “Plant response rating, Barnyardgrass” value [13, 20] was 85 and the “Barnyardgrass plant response rating” value [13, 21] was 100. For the same compound, the “Barnyardgrass plant response rating” value [13, 22] was 30, the “Morningglory plant response rating” value [14, 15] was 90 and the “Plant response rating, Morningglory” value [14, 16] was 100. For the same compound, the “Plant response rating, Morningglory” value [14, 17] was 100, the “Plant response rating, Morningglory” value [14, 18] was 80 and the “Plant response rating, Morningglory” value [14, 19] was 90. For the same compound, the “Plant response rating, Morningglory” value [14, 20] was 98, the “Morningglory plant response rating” value [14, 21] was 98 and the “Morningglory plant response rating” value [14, 22] was 100.
